pIC50: −log10 of the molar value.
Legend:
Type in all cases: biochemical
[1] = target: VEGFR-2 (KDR kinase) (Homo sapiens, UniProt P35968, DEL940-989/E990V); experiment: KDR Kinase Assay (VEGFR-2); settings: for Fold Selectivity VEGFR-2/MET: ratio VEGFR-2 IC50 / MET IC50; for pIC50: methods of the Biological Data section
Method: The activity of KDR kinase was determined by following the production of ADP from the kinase reaction through coupling with the pyruvate kinase/lactate dehydrogenase system (e.g., Schindler et al. Science 2000, 289, pp. 1938-1942). In this assay, the oxidation of NADH (thus the decrease at A340 nm) was continuously monitored spectrophotometrically. The reaction mixture (100 μl) contained KDR (Seq ID No. 3, 1.5 nM to 7.1 nM, nominal concentration), polyE4Y (1 mg/mL), pyruvate kinase (3.5 units), lactate dehydrogenase (5.5 units), phosphoenolpyruvate (1 mM), and NADH (0.28 mM) in 60 mM […] buffer containing 0.13% octyl-glucoside, 13 mM MgCl2, 6.8 mM DTT, and 3.5% DMSO at pH 7.5. The reaction was initiated by adding ATP (0.2 mM, final concentration). The absorption at 340 nm was continuously monitored for 3 h at 30° C. on a Polarstar Optima plate reader (BMG) or instrument of similar capacity. The reaction rate was calculated using the 1 h to 2 h time frame. Percent inhibition was obtained by comparison of reaction rate with that of a control (i.e., with no test compound). IC50 values were calculated from a series of percent inhibition values determined at a range of inhibitor concentrations using software routines as implemented in the GraphPad Prism software package.
KDR kinase assay K2 is the same as for assay K1 except that (1) a nominal concentration of 2.1 nM of enzyme was employed (2) the reaction was pre-incubated at 30° C. for 2 h prior to initiation with ATP and (3) 1.0 mM ATP (final concentration) was used to initiate the reaction.
KDR kinase assay K3 is the same as for assay K1 except that (1) a nominal concentration of 1.1 nM of enzyme was employed, (2) the buffer components per 100 μl reaction mixture were as follows: 75 mM Tris buffer containing 0.066% octyl-glucoside, 17 mM MgCl2, and 1% DMSO at pH 7.5, (3) the final concentration of DTT was 0.66 mM, (4) the reaction was pre-incubated at 30° C. for 1 h prior to initiation with ATP, and (5) 1.0 mM ATP (final concentration) was used to initiate the reaction.

[2] = target: T1, VEGFR-1 (FLT1 kinase) (Homo sapiens, UniProt P17948); experiment: FLT1 Kinase Assay (VEGFR-1); settings: for Fold Selectivity VEGR-1/MET: ratio VEGFR-1 IC50 / MET IC50; for pIC50: methods of the Biological Data section
T1 construct: GST tagged recombinant human FLT1, amino acids 781-1338; GST; host or cells: insect cells
T1 sequence (P17948 781-1338): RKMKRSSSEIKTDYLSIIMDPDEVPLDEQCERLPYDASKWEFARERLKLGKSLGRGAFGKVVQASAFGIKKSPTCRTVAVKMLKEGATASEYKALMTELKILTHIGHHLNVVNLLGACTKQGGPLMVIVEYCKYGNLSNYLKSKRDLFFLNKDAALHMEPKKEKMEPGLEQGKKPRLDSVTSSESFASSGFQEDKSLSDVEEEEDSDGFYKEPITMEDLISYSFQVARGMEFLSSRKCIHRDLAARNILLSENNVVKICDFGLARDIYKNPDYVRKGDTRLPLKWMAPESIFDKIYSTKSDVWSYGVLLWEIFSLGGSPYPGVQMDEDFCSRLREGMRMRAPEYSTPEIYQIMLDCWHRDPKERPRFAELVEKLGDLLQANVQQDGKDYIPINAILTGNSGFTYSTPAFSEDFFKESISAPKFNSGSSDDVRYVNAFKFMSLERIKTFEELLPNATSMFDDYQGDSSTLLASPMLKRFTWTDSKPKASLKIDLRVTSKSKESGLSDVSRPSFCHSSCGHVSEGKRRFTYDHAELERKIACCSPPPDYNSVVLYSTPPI
Method: Activity of FLT1 kinase was determined by a radioactive filtration binding assay where incorporation of ^33P from ^33P-γ-ATP to the substrate is measured. In this assay, detection of ^33P was indicative of FLT1 phosphorylation activity which was directly proportional to the amount of phosphorylated peptide substrate poly[Glu:Tyr] (4:1). Initially, the reaction mixture contained: 400 nM FLT1, 20 mM HEPES, pH 7.5, 10 mM MgCl2, 2 mM MnCl2, 1 mM EGTA, 0.02% Brij 35, 0.02 mg/mL BSA, 0.1 mM Na3VO4, and 2 mM DTT. The reaction mixture was incubated with compound at room temperature for 30 minutes. To initiate the reaction, an equal volume of 20 μM ATP and 0.2 mg/mL peptide substrate were added and then incubated at room temperature for 2 hours. The final assay conditions were: 200 nM FLT1, 10 μM ATP, 0.1 mg/ml, substrate 20 mM HEPES, pH 7.5, 10 mM MgCl2, 1 mM EGTA, 0.02% Brij 35, 0.02 mg/mL BSA, 0.1 mM Na3VO4, 2 mM DTT, and 1% DMSO. IC50 values were calculated from a series of % Activity values determined at a range of inhibitor concentrations using software routines as implemented in the Graph Pad Prism software package.
GST tagged recombinant human FLT1, amino acids 781-1338. Expressed in insect cells.

[3] = target: T2, c-MET kinase (Homo sapiens, UniProt P08581); experiment: c-MET Kinase Assay; settings: for fold potency versus c-MET kinase relative to corresponding mono-fluoro analog: Compound D vs Compound E, Compound G vs Compound F; for pIC50: methods of the Biological Data section
T2 construct: His6 with TEV-site leader (N); purchased Invitrogen PV3143
T2 sequence (P08581 with tags, fused parts or gaps): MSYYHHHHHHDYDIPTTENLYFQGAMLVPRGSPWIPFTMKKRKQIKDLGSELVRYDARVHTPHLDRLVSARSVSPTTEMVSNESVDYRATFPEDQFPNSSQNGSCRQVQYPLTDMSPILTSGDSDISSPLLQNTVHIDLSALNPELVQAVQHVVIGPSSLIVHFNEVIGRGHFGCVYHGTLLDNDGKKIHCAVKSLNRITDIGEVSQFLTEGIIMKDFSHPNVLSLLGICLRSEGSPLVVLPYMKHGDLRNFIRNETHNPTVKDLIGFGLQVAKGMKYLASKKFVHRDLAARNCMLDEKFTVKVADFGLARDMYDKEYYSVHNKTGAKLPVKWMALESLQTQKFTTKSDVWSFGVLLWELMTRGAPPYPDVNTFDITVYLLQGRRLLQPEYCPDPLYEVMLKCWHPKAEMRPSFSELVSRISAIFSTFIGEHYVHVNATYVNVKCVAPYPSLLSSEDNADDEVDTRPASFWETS
Method: Activity of c-MET kinase (Seq. ID No. 2) was determined by following the production of ADP from the kinase reaction through coupling with the pyruvate kinase/lactate dehydrogenase system (e.g., Schindler et al. Science 2000, 289, pp. 1938-1942). In this assay, the oxidation of NADH (thus the decrease at A340 nm) was continuously monitored spectrophotometrically. The reaction mixture (100 μl) contained c-MET (c-MET residues: 956-1390, from Invitrogen, catalogue #PV3143, 6 nM), polyE4Y (1 mg/mL), MgCl2 (10 mM), pyruvate kinase (4 units), lactate dehydrogenase (0.7 units), phosphoenol pyruvate (1 mM), and NADH (0.28 mM) in 90 mM Tris buffer containing 0.25 mM DTT, 0.2% octyl-glucoside and 1% DMSO, 7.5. Test compounds were incubated with c-MET (Seq. ID No. 2) and other reaction reagents at 22° C. for 0.5 h before ATP (100 μM) was added to start the reaction. The absorption at 340 nm was monitored continuously for 2 hours at 30° C. on Polarstar Optima plate reader (BMG). The reaction rate was calculated using the 1.0 to 2.0 h time frame. Percent inhibition was obtained by comparison of reaction rate with that of a control (i.e., with no test compound). IC50 values were calculated from a series of percent inhibition values determined at a range of inhibitor concentrations using software routines as implemented in the GraphPad Prism software package.

Sequence of VEGFR-2 (KDR kinase) (P35968 with tags, fused parts or gaps DEL940-989/E990V): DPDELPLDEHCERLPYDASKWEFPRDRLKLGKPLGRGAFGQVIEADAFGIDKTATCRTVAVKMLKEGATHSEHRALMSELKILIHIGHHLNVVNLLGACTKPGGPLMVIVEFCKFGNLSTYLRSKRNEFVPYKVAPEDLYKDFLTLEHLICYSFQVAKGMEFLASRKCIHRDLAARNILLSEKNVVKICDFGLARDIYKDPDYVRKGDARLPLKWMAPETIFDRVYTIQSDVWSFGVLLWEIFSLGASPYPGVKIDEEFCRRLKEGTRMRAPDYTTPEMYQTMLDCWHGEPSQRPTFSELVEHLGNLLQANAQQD

SMILES	Fold Selectivity VEGFR-2/MET [1]	Fold Selectivity VEGR-1/MET [2]	fold potency versus c-MET kinase relative to corresponding mono-fluoro analog [3]	pIC50 [1]	pIC50 [2]	pIC50 [3]
O=C(Nc1cc(Oc2cc(F)c(NC(=O)C3(C(=O)Nc4ccc(F)cc4)CC3)cc2F)ccn1)N1CC(CO)C1 [Compound H]	2.5	3.5	–	–	–	–
CN1CCN(C2CCN(C(=O)Nc3cc(Oc4cc(F)c(NC(=O)C5(C(=O)Nc6ccc(F)cc6)CC5)cc4F)ccn3)CC2)CC1 [Compound G]	2.13	0.45	1.1 fold	–	–	–
CC(=O)Nc1cc(Oc2ccc(NC(=O)C3(C(=O)Nc4ccc(F)cc4)CC3)c(F)c2)ccn1 [Compound E, N-(4-(2-acetamidopyridin-4-yloxy)-2-fluorophenyl)-N′-(4-fluorophenyl)cyclopropane-1,1-dicarboxamide]	4.69	6.15	–	6.91	6.80	7.59
CC(=O)Nc1cc(Oc2cc(F)c(NC(=O)C3(C(=O)Nc4ccc(F)cc4)CC3)cc2F)ccn1 [Compound D, N-(4-(2-acetamidopyridin-4-yloxy)-2,5-difluorophenyl)-N′-(4-fluorophenyl)cyclopropane-1,1-dicarboxamide]	13	19.75	6.5 fold	7.28	7.10	8.40

Reference: patent US8637672B2 (Deciphera Pharmaceuticals, LLC, priority 2010, dated 2014)
